{"source": "paper PMC11455950", "about": "“Effects of SZV-2649, a new multiple ion channel inhibitor mexiletine analogue” (Scientific Reports, 2024)", "key": {"anesthetized rats": {"test_system": "anesthetized rats", "assay": "Coronary artery occlusion/reperfusion-induced ventricular arrhythmias in anesthetized rats", "assay_type": "in vivo, rat", "description": "The effects of SZV-2649 were further studied in the acute ischemia-induced ventricular arrhythmia model in anasthetized rats. Mexiletine and dofetilide were used as reference compounds for comparison.\nThe surgical procedure was based on a modified method described in detail in Gömöri et al. (2020)[62]. Pentobarbital-anesthetized male Wistar-Hannover rats were mechanically ventilated and subjected to thoracic surgery to perform a 6-min coronary artery occlusion and 5-min of reperfusion for the development of ischemia-induced ventricular arrhythmias (see Fig. 6A). The right jugular vein was cannulated for the administration of SZV-2649, vehicle, mexiletine or dofetilide, and the right carotid artery was used to measure blood pressure. The three-lead electrocardiogram and body temperature were continuously registered. Ten to twelve rats per group were administered vehicle (dimethyl sulfoxide, 200 µL/kg) or the studied drugs (see above), 2 min before the onset of ischemia as a slow i.v. bolus injection through the right jugular vein. At the end of 5-min reperfusion, hearts were isolated, mounted onto a Langendorff perfusion system, and after re-occluding the coronary artery, were perfused with 5-mL of 70% ethanol via the ascending aorta to delineate the ischemic risk zone. Then the left ventricles were cut along the demarcation lines of denatured area, and the sections were weighed to determine the area of risk to normalize the extent of the ischaemic insult. We evaluated the occurrence of ventricular arrhythmias based on the recommendations of the modified Lambeth Conventions published previously by Curtis et al. (2013)[63]."}, "[1]": {"test_system": "L-type inward calcium current (ICaL)", "assay": "Whole-cell patch-clamp, L-type calcium current in dog ventricular myocytes", "assay_type": "cell-based", "conditions": "10 µM, dog left ventricular myocytes", "description": "The effects of SZV-2649 on transmemrane ionic currents were investigated in dog cardiac myocytes after a 5-minute superfusion of the drug.\nThe L-type inward calcium current (ICaL) was measured from a holding potential of -80 mV with a 40 ms prepulse to -40 mV to inactivate INa (see inset of Fig. 3B). Test pulses of 400 ms duration from − 35 mV to 55 mV were applied with a pulsing cycle length of 3 s. In the internal (pipette) solution, KCl was replaced by 125 mM CsCl to block potassium currents.\nVentricular myocytes from Beagle dogs were enzymatically dissociated as described in detail previously. A single droplet of cell suspension was placed in a transparent recording chamber mounted on the stage of an inverted microscope (Olympus IX51, Olympus, Tokyo, Japan), and individual myocytes were allowed to settle and adhere to the chamber bottom for at least 5–10 min before superfusion was initiated and maintained by gravity. Only rod-shaped cells with clear striations were used. […]\nThe membrane currents were recorded with Axopatch-200B amplifiers (Molecular Devices, Sunnyvale, CA, USA) by means of the whole-cell configuration of the patch-clamp technique. […]\nThe L-type calcium current (ICaL) was recorded in HEPES-buffered Tyrode’s solution supplemented with 3 mM 4-aminopyridine. […]"}}, "data": [{"molecule": "CC(N)COc1c(I)cc(C#N)cc1I.Cl", "note": "(stereo not shown) [SZV-2649, 4-(2-aminopropoxy)-3,5-diiodobenzonitrile hydrochloride]", "values": [{"measurement": "Effect on incidence of ventricular arrhythmias", "setting": "anesthetized rats; 6 min coronary artery occlusion / 5 min reperfusion, i.v. 2 min before ischemia", "value": "markedly reduced"}, {"measurement": "Incidence of ventricular fibrillation (VF)", "setting": "anesthetized rats; during reperfusion, over 50% in control animals", "value": 0, "unit": "%"}, {"measurement": "Effect on heart rate", "setting": "anesthetized rats; i.v. administration, anesthetized rats", "value": "significantly decreased"}, {"measurement": "Effect on magnitude of ICaL", "setting": "[1]", "value": "moderately but significantly decreased"}]}]}
